Laboratory results: US20110053897A1 (IRM LLC, priority 2009, published 2011)
Read-outs that look alike come from different tables or passages of the source.

Biological target: T1, Syk kinase (Homo sapiens, UniProt P43405)
T1 construct: purchased
Assay: Syk kinase inhibition, Caliper LabChip off-chip mobility-shift kinase assay
Assay type: biochemical
Settings: read-out: Syk Enzyme IC50
Outline: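 Purified Syk pre-incubated 15 min with compound in 100 mM HEPES pH 7.5, 1 mM DTT, 10 mM MgCl2 or MnCl2, 0.002% Brij-35, then 1.5 μM fluorescein peptide and ATP at apparent KM added; 1–1.5 h at room temperature, 4% DMSO, EDTA stop. Microfluidic mobility-shift product/substrate conversion gave % inhibition; IC50 from 12-point series (10–0.00003 μM) by 4-parameter fit.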

Compound | IC50 (Caliper LabChip assay) | IC50
O=C(Cn1ccc2cc(Nc3cnccn3)nc(N[C@H]3CC[C@@H](O)CC3)c2c1=O)N1CCOCC1 [compound 1007] | 0.132 µM | –
CC(C)(C)Nc1nc(Nc2cc(CCO)ccn2)cc2ccn(CCO)c(=O)c12 [compound 857] | 0.004 µM | –
CCn1ccc2cc(-c3cnc(N)nc3)nc(N[C@H]3CC[C@@H](CO)C3)c2c1=O [compound 913] | 0.005 µM | –
CCN1CCN(Cc2n[nH]c3cc(Nc4nc(-c5cncnc5)cc5cc[nH]c(=O)c45)ccc23)CC1 [compound 202] | – | 0.027 µM
O=c1[nH]ccc2cc(Nc3cc(CO)ccn3)nc(NC3CC3)c12 [compound 518] | – | 0.059 µM
Nc1ncc(-c2cc3ccn(CCO)c(=O)c3c(N3CCCC3)n2)cn1 [compound 909] | 0.546 µM | –
Cc1n[nH]c2ncc(-c3cc4cc[nH]c(=O)c4c(Nc4ccc(N5CCOCC5)cc4)n3)cc12 [compound 192] | – | 0.263 µM
CCn1ccc2cc(Nc3cc(C(C)(C)O)ccn3)nc(NC3(C)CCC3)c2c1=O [compound 702] | 0.085 µM | –
COc1cncc(-c2cc3cc[nH]c(=O)c3c(Nc3ccc(C4CN(C(C)=O)C4)cc3)n2)n1 [compound 149] | – | 0.024 µM
Cc1ccc(-c2cc3cc[nH]c(=O)c3c(Nc3cnn(CCN4CCOCC4)c3)n2)cn1 [compound 126] | – | 0.1 µM
N#CCn1ccc2cc(-c3cnc(N)nc3)nc(NC3CCOCC3)c2c1=O [compound 751] | 0.07 µM | –
[2H]C([2H])([2H])n1ccc2cc(Nc3cc(Cl)ccn3)nc(NC(C)(C)CO)c2c1=O [compound 786] | 0.071 µM | –
COc1cncc(-c2cc3cc[nH]c(=O)c3c(Nc3ccc(C4CCN(C(C)=O)CC4)c(C)c3)n2)n1 [compound 144] | – | 0.092 µM
COc1cncc(-c2cc3cc[nH]c(=O)c3c(Nc3ccc(C4CCN(CC5CCCO5)CC4)c(C)c3)n2)n1 (stereo not drawn) [compound 77] | – | 0.115 µM
CC1(Nc2nc(-c3cnc(N)nc3)cc3ccn(CCO)c(=O)c23)CCC1 [compound 907] | < 0.000847 µM | –
Cc1ccnc(Nc2cc3cc[nH]c(=O)c3c(NC(C)C)n2)c1 [compound 490] | – | 0.032 µM
Cn1ccc2cc(Nc3cnccn3)nc(Nc3ccc(C4CCNCC4)cc3)c2c1=O [compound 341] | – | 0.112 µM
Cc1ccnc(Nc2cc3ccn(CCO)c(=O)c3c(Nc3ccc(C(=O)N4CCOCC4)c(C)c3)n2)c1 [compound 650] | 0.186 µM | –
COCc1ccnc(Nc2cc3ccn(CCO)c(=O)c3c(NC(C)(C)C)n2)c1 [compound 709] | 0.011 µM | –
CCn1ccc2cc(-c3cnc(N)nc3)nc(NC(C)(C)CO)c2c1=O [compound 904] | 0.004 µM | –
CC(C)(C)Nc1nc(Nc2cc(N3CCC(=O)CC3)ncn2)cc2ccn(CCO)c(=O)c12 [compound 632] | 0.117 µM | –
CCn1ccc2cc(-c3cnc(N)nc3)nc(N)c2c1=O [compound 743, 8-amino-6-(2-aminopyrimidin-5-yl)-2-ethyl-2,7-naphthyridin-1(2H)-one] | 0.287 µM | –
CCn1ccc2cc(Nc3cnccn3)nc(N[C@H](CO)C(C)C)c2c1=O [compound 1043] | 0.122 µM | –
CCn1ccc2cc(Nc3cnccn3)nc(N[C@@H]3CCC[C@H]3O)c2c1=O [compound 940] | 0.483 µM | –
Cn1ccc2cc(Nc3cnccn3)nc(Nc3ccc(S(C)(=O)=O)cc3)c2c1=O [compound 336] | – | 0.584 µM
CC(C)(C)Nc1nc(Nc2cc(CCCCO)ncn2)cc2ccn(CCO)c(=O)c12 [compound 629] | 0.062 µM | –

Compound | IC50 (Caliper LabChip assay) | IC50
CCn1ccc2cc(Nc3cnccn3)nc(NC(C)C)c2c1=O [compound 307] | – | 0.06 µM
CCOCCOc1ccc(Nc2nc(Nc3cc(C)ccn3)cc3ccn(C)c(=O)c23)cc1 [compound 334] | – | 1.72 µM
CCn1ccc2cc(Nc3cc(C)ccn3)nc(N[C@@H]3CCC[C@@H]3CO)c2c1=O [compound 941] | 0.226 µM | –
COc1cncc(-c2cc3cc[nH]c(=O)c3c(Nc3ccc(C4CCN(CC(=O)N(C)OC)CC4)c(C)c3)n2)n1 [compound 176] | – | 0.041 µM
COC(=O)CN1CCC(c2ccc(Nc3nc(-c4cncc(OC)n4)cc4cc[nH]c(=O)c34)cc2C)CC1 [compound 157] | – | 0.099 µM
CCCc1ccnc(Nc2cc3ccn(CC)c(=O)c3c(NC(C)C)n2)c1 [compound 306] | – | 0.612 µM
O=c1c2c(N[C@H]3CC[C@@H](O)CC3)nc(Nc3cnccn3)cc2ccn1CCF [compound 999] | 0.01 µM | –
CC(=O)c1cc2cc[nH]c(=O)c2c(Nc2ccc(N3CCO[C@H](C)C3)c(C)c2)n1 [compound 220] | – | 0.807 µM
Cc1ccnc(Nc2cc3cc[nH]c(=O)c3c(N[C@@H]3CCOC3)n2)c1 [compound 301] | – | 0.037 µM
Cc1ccnc(Nc2cc3ccn(CCO)c(=O)c3c(NC(C)(C)C)n2)c1 [compound 487] | – | 0.102 µM
CC(C)(C)Nc1nc(Nc2cnccn2)cc2ccn(CCO)c(=O)c12 [compound 459] | – | 0.052 µM
CCc1ccnc(Nc2cc3cc[nH]c(=O)c3c(NC(C)C)n2)c1 [compound 491] | – | 0.063 µM
CCCN1CCC(c2ccc(Nc3nc(-c4cncc(OC)n4)cc4cc[nH]c(=O)c34)cc2C)CC1 [compound 55] | – | 0.033 µM
COc1cncc(-c2cc3cc[nH]c(=O)c3c(Nc3ccc(C4CCN(C(C)C(=O)NC(C)C)CC4)c(C)c3)n2)n1 (stereo not drawn) [compound 175] | – | 0.144 µM
CC(C)(C)Nc1nc(Nc2cc(C(C)(C)C)ccn2)cc2ccn(CCO)c(=O)c12 [compound 616] | 1.35 µM | –
CC(C)(C)Nc1nc(Nc2cc(C(=O)NCCc3c[nH]cn3)ccn2)cc2ccn(CCO)c(=O)c12 [compound 687] | 0.248 µM | –
CC(C)Nc1nc(Nc2cnccn2)cc2ccn(CCO)c(=O)c12 [compound 318] | – | 0.052 µM
Cc1ccnc(Nc2cc3ccn(CCO)c(=O)c3c(N[C@H]3CCOC3)n2)c1 [compound 369] | – | 0.012 µM
Cc1ccnc(Nc2cc3ccn(C)c(=O)c3c(N[C@H]3CCC[C@H]3O)n2)c1 (racemic) [compound 324] | – | 0.098 µM
COCC(O)Cn1ccc2cc(Nc3cnccn3)nc(NC(C)(C)C)c2c1=O (stereo not drawn) [compound 677] | 0.012 µM | –
CCn1ccc2cc(Nc3cnccn3)nc(NC3(CO)CCC3)c2c1=O [compound 897] | 0.005 µM | –
CC[C@H](C)Nc1nc(Nc2cc(C)ccn2)cc2cc[nH]c(=O)c12 [compound 283] | – | 0.443 µM
CC1(Nc2nc(Nc3cnccn3)cc3ccn(CCO)c(=O)c23)CC1 [compound 838] | 0.017 µM | –
COc1cncc(-c2cc3cc[nH]c(=O)c3c(Nc3ccc(CCN4CCN(C(C)=O)CC4)cc3)n2)n1 [compound 45] | – | 0.061 µM
CCn1ccc2cc(Nc3cnccn3)nc(N[C@H]3CCC[C@H]3O)c2c1=O [compound 938] | 0.024 µM | –
CCn1ccc2cc(Nc3cc(C)ccn3)nc(NC(C)(CO)CO)c2c1=O [compound 808] | 0.081 µM | –

Compound | IC50 (Caliper LabChip assay) | IC50
CC(C)Nc1nc(Nc2cc(C(C)(C)O)ccn2)cc2ccn(CCO)c(=O)c12 [compound 705] | 0.014 µM | –
Cc1ccnc(Nc2cc3cc[nH]c(=O)c3c(NC(C)CC(C)C)n2)c1 (stereo not drawn) [compound 270] | – | 6.95 µM
O=c1c2c(NC3CCCC3)nc(Nc3cnccn3)cc2ccn1CC1(CO)COC1 [compound 763] | 0.012 µM | –
COCC(C)(C)C(=O)N1CCC(c2ccc(Nc3nc(-c4cncc(OC)n4)cc4cc[nH]c(=O)c34)cc2C)CC1 [compound 8] | – | 0.253 µM
Cc1ccnc(Nc2cc3ccn(CCO)c(=O)c3c(NC3CCS(=O)(=O)C3)n2)c1 (stereo not drawn) [compound 974] | 0.203 µM | –
CC(C)CC(C)Nc1nc(Nc2ccccn2)cc2cc[nH]c(=O)c12 (stereo not drawn) [compound 275] | – | 3.2 µM
COCCCc1cc2cc[nH]c(=O)c2c(Nc2ccc(N3CCOCC3)cc2)n1 [compound 240] | – | 0.356 µM
Cn1ccc2cc(Nc3ccc(C(N)=O)cn3)nc(N)c2c1=O [compound 574] | – | 0.142 µM
CCn1ccc2cc(Nc3ncccn3)nc(NC[C@H]3CC[C@H](O)C3)c2c1=O [compound 411] | – | 0.071 µM
CN1CCN(C2CCC(c3ccc(Nc4nc(-c5cncnc5)cc5cc[nH]c(=O)c45)cc3)CC2)CC1 (stereo not drawn) [compound 104] | – | 0.031 µM
COCCN1CCC(c2ccc(Nc3nc(-c4cnc5nccn5c4)cc4cc[nH]c(=O)c34)cc2C)CC1 [compound 30] | – | 0.008 µM
CCCNC(=O)c1ccc(Nc2nc(Nc3cnccn3)cc3ccn(C)c(=O)c23)cc1 [compound 366] | – | 0.323 µM
N#CCn1ccc2cc(-c3cnc(N)nc3)nc(NC3CCOCC3)c2c1=O [compound 742] | 0.034 µM | –
COc1cncc(-c2cc3cc[nH]c(=O)c3c(Nc3ccc(C4CN(CCO)C4)cc3)n2)n1 [compound 147] | – | 0.004 µM
O=c1[nH]ccc2cc(Nc3ccccn3)nc(N[C@H]3CCC[C@H]3O)c12 (racemic) [compound 280] | – | 0.062 µM
COCCCN1CCC(c2ccc(Nc3nc(-c4cncc(OC)n4)cc4cc[nH]c(=O)c34)cc2C)CC1 [compound 141] | – | 0.007 µM
CCn1ccc2cc(Nc3cnccn3)nc(NC3(CO)CC3)c2c1=O [compound 797] | 0.106 µM | –
[2H]C([2H])([2H])n1ccc2cc(Nc3cc(C)c(F)cn3)nc(NC(C)(C)C)c2c1=O [compound 531] | – | 0.296 µM
C=C(C)c1cc2cc[nH]c(=O)c2c(Nc2ccc(C3CCN(C4CC4)CC3)c(C)c2)n1 [compound 229] | – | 0.743 µM
CC(C)N1CCC(c2cc3cc[nH]c(=O)c3c(Nc3ccc(N4CCOCC4)cc3)n2)CC1 [compound 3] | – | 0.202 µM
CC(C)(C)CNc1nc(-c2cnc(N)nc2)cc2ccn(CCO)c(=O)c12 [compound 911] | 0.094 µM | –
CCn1ccc2cc(Nc3cc(C)ccn3)nc(N[C@H](CO)C(C)C)c2c1=O [compound 1041] | 0.158 µM | –
CS(=O)(=O)c1ccc(Nc2nc(Nc3cnccn3)cc3ccn(CCO)c(=O)c23)cc1 [compound 405] | – | 0.235 µM
Cc1ccnc(Nc2cc3cc[nH]c(=O)c3c(N[C@@H]3CCC[C@H]3O)n2)c1 (racemic) [compound 267] | – | 0.056 µM
Cn1ccc2cc(Nc3cnccn3)nc(NCCCO)c2c1=O [compound 474] | – | 0.14 µM
CC(C)(C)Nc1nc(Nc2cnccn2)cc2ccn(CCC(N)=O)c(=O)c12 [compound 661] | 0.01 µM | –
